Test results from article PMC7143582, “Functional Characterization of Sex Pheromone Receptors in the Fall Armyworm (Spodoptera frugiperda)” (Insects, 2020).

Assays:
[1] = tested on: T1, SfruOR13; experiment: two-electrode voltage clamp, Xenopus oocytes co-expressing SfruOR13/ORco, dose-response; format: cell-based, Spodoptera frugiperda
T1 construct: gene OR13; full-length ORF; with SfruORco

[2] = tested on: T2, SfruOR16; experiment: two-electrode voltage clamp, Xenopus oocytes co-expressing SfruOR16/ORco, dose-response; format: cell-based, Spodoptera frugiperda
T2 construct: gene OR16; full-length ORF; with SfruORco

Structure (SMILES) | EC50 [1] [µM] | EC50 [2] [µM]
CCCC/C=C\CCCCCCCCOC(C)=O [Z9-14:OAc] | 6.08 | 
CCCC/C=C\CCCCCCCCO [Z9-14:OH, (Z)-9-tetradecen-1-ol] |  | 16.9
